Results as given in patent US9988371B2, “Benzimidazole analogues and related methods” (The Arizona Board of Regents, on Behalf of the University …, priority 2014, dated 2018).

Test system: TT cells xenografted
Test: TT cell xenograft in SCID mice
Format: in vivo
Details: 0.3, 1.0, or 3.0 mg/kg daily, oral gavage, 28 days; all tested doses
From the text: FIG. 7: Anti-tumorigenic activity of Pz-1 on TT cells xenografted into SCID mice. […] Average volumes of tumors are reported±SD (standard deviation). TT cells (7.5×10^6/mouse) were inoculated subcutaneously into dorsal portions (both sides) of 39 female SCID mice (Jackson Laboratories, Bar Harbor, Me.). After 5 weeks, at least one tumour was present in each mouse and a total of 70 tumours were visible: 56 tumours were 40-150 mm^3 and 14 tumours were <40 mm^3. […] Tumor-bearing animals were randomly assigned to receive Pz-1 (0.3, 1.0, or 3.0 mg/kg, daily) (29 mice, 52 tumours) or vehicle (10 mice, 18 tumours) by oral gavage. Treatment was administered for 28 consecutive days. Tumor diameters were measured with calipers every week. Tumor volumes (V) were calculated by the rotational ellipsoid formula: V=A×B^2/2 (A=axial diameter; B=rotational diameter) and reported as average volumes±standard deviations. […]
TT cells (7.5×10^6/mouse) were inoculated subcutaneously into dorsal portions (both sides) of 39 SCID mice (Jackson Laboratories, Bar Harbor, Me.). […] Tumor diameters were measured with callipers every week. Tumor volumes (V) were calculated by the rotational ellipsoid formula: V=A×B^2/2 (A=axial diameter; B=rotational diameter) and reported as average volumes±standard deviations. […] Tumor diameters were measured with calipers every 1-2 days. […]

For Cn1cc(-c2ccc3c(c2)ncn3-c2ccc(CC(=O)Nc3cc(C(C)(C)C)on3)cc2)cn1 [Pz-1, N-(5-(tert-butyl)isoxazol-3-yl)-2-(4-(5-(1-methyl-1H-pyrazol-4-yl)-1H-benzo[d]imidazol-1-yl)phenyl)acetamide], the tumor growth was “strongly inhibited tumor growth”.
